The values that follow come from the OligoGym collection.

Series [1] concerns the target MALAT1. The conditions noted are these: ASO, A431, 0.005 µM.
The target of series [2] is IRF4. The settings on record: ASO.

“And” between values parts separate entries of the source, which are not always exact repeats. Identical values can stand only once. After the bases stand the sugars from the 5' end (letter, count) and the backbone: PS all phosphorothioate, else s phosphorothioate and o phosphodiester by linkage. Methylation of C is not given here. e = 2'-O-(2-methoxyethyl) (MOE); k = constrained ethyl (cEt); d = 2'-deoxy (DNA)

With TTGAACCCCGTCCTGG (sugars k3 d10 k3, PS), in series [1], the target mRNA inhibition was determined as 12%. With ATTATCCTGATATTGG (sugars k3 d10 k3, PS), in series [1], the target mRNA inhibition is 46%. Take ATTAATGCACTGGTAC (sugars k3 d10 k3, PS): in series [1], the target mRNA inhibition was 16%. For the sequence GAGAACTGCTCTAGTT (sugars k3 d10 k3, PS), the target mRNA inhibition in series [1] stood at 34%. Still for that read-out and setting: in the case of TGCCAACTTGGAAGTT (sugars k3 d10 k3, PS) it was 32%; in that of TGGCGGACTTTCTCCC (sugars k3 d10 k3, PS), 9%; in that of CTACCATATCCAAACA (sugars k3 d10 k3, PS), 21%. The same measure, in the same setting: in the case of AAATCCCTTTACACCT (sugars k3 d10 k3, PS) it was 23%; in that of TAGATTCCGTAACTTT (sugars k3 d10 k3, PS), 58%. The same measure, in the same setting: next, GAGTAACTACCAGCCA (sugars k3 d10 k3, PS): 37%.

With TCCAGGACTTGGCAGT (sugars k3 d10 k3, PS), in series [1], the target mRNA inhibition worked out at 23%. On the same count and under the same terms, in the case of TTTCCCCAATCAAGAT (sugars k3 d10 k3, PS) it was -4%. Same read-out and setting: next, GGGAACACAACTTTTA (sugars k3 d10 k3, PS): 33%; TGGCCCTTCGCATACG (sugars k3 d10 k3, PS): 28%; GTACCTGAAAAATCTT (sugars k3 d10 k3, PS): 3%. Still for that read-out and setting: in the case of CTGGCATGAGTTTATC (sugars k3 d10 k3, PS) it was 27%. Regarding ACGGCCCGCACGGAAA (sugars k3 d10 k3, PS), the target mRNA inhibition in series [1] was found to be 16%. As to CTAATCACTGTCAATT (sugars k3 d10 k3, PS), the target mRNA inhibition in series [1] was -1%.

Consider CCACGGCCCGCACGGA (sugars k3 d10 k3, PS), for which the target mRNA inhibition in series [1] was 6%. As for CGGTACACTCCTTCTC (sugars k3 d10 k3, PS), the target mRNA inhibition in series [1] is 40%. In the case of CAAGGATGTATATAGT (sugars k3 d10 k3, PS), the target mRNA inhibition in series [1] came to 0%. The same measure, in the same setting: next, GACCAACTAAGCGAAT (sugars k3 d10 k3, PS): 39%; TAAGGAGACAGCTTTC (sugars k3 d10 k3, PS): 16%. Turning to AAGCCGCCTGCTACCT (sugars k3 d10 k3, PS), the target mRNA inhibition in series [1] is -16%. The same measure, in the same setting: next, TAACATGCAATACTGC (sugars k3 d10 k3, PS): 18%. Same read-out and setting: in the case of AGATTGCCCCAACACT (sugars k3 d10 k3, PS) it was 38%; in that of AACATATTGCCGACCT (sugars k3 d10 k3, PS), 45%; in that of GTAACTACCAGCCATT (sugars k3 d10 k3, PS), 45%.

For the sequence CAAGCTGAACTATCAC (sugars k3 d10 k3, PS), in series [1], the target mRNA inhibition amounted to 27%. On to TCTCATACACTCACTA (sugars k3 d10 k3, PS), for which the target mRNA inhibition in series [1] was found to be 11%.

As to CTAACATGCAATACTG (sugars k3 d10 k3, PS), the target mRNA inhibition in series [1] amounted to 1%. Still for that read-out and setting: next, GTTATATTAGGTTCTC (sugars k3 d10 k3, PS): 7%.

Take AACAACTCGCATCACC (sugars k3 d10 k3, PS): the target mRNA inhibition in series [1] worked out at 17%. With TTAAACGGGTCATCAA (sugars k3 d10 k3, PS), in series [1], the target mRNA inhibition turned out to be 0%. On the same count and under the same terms, in the case of CTTCACCAAATCGCAC (sugars k3 d10 k3, PS) it was -13%. Same read-out and setting: in the case of TCAATCACAAATACGA (sugars k3 d10 k3, PS) it was 30%; in that of CTACTATTTCTCCAGG (sugars k3 d10 k3, PS), 41%; in that of TAACAGCACATCATGC (sugars k3 d10 k3, PS), 21%. As for CCGCACGGAAATTTTT (sugars k3 d10 k3, PS), the target mRNA inhibition in series [1] is 15%. Same read-out and setting: next, ACACCTTGAGTCATTT (sugars k3 d10 k3, PS): 50%; AATCCTGATCTGGTCC (sugars k3 d10 k3, PS): 46% and 66%. For the sequence CGCTGCGCTTAAGAGG (sugars k3 d10 k3, PS), the target mRNA inhibition in series [1] worked out at 10%. The same measure, in the same setting: next, CCTCATGCTACTCTTC (sugars k3 d10 k3, PS): 54%.

Take AGCTACTGGCTGCATC (sugars k3 d10 k3, PS): the target mRNA inhibition in series [1] was 20%. As for CCCACAAACTTGCCAT (sugars k3 d10 k3, PS), in series [1], the target mRNA inhibition was 1%. The same measure, in the same setting: next, CCGTTACGAAAGTCCT (sugars k3 d10 k3, PS): 67% and 56%; CTGCATCTAGGCCATC (sugars k3 d10 k3, PS): 65% and 52%; CGGGCTGCAGGCTGCG (sugars k3 d10 k3, PS): 14%. On to GCTAAGATAGCAGCAC (sugars k3 d10 k3, PS), for which, in series [1], the target mRNA inhibition amounted to 29%.

For the sequence CCATAATTGTAGTTAA (sugars k3 d10 k3, PS), the target mRNA inhibition in series [1] is 7%. Same read-out and setting: next, GCTTGACAAGCAATTA (sugars k3 d10 k3, PS): 35%; GCATTGCCCTTCTATT (sugars k3 d10 k3, PS): 70% and 46%.

ACGCAACTGAGCCCCA (sugars k3 d10 k3, PS): the target mRNA inhibition in series [1] was -44%. The same measure, in the same setting: in the case of CAGTTATATTAGGTTC (sugars k3 d10 k3, PS) it was 8%; in that of CTACCTTCATCACCAA (sugars k3 d10 k3, PS), 2%. Still for that read-out and setting: in the case of TTTAAAAGATCGCCTT (sugars k3 d10 k3, PS) it was 50%.

On to CGATTATGGATCATGC (sugars k3 d10 k3, PS), for which the target mRNA inhibition in series [1] was 44% and 57%.

For the sequence CTACAACAAGTAAGCC (sugars k3 d10 k3, PS), the target mRNA inhibition in series [1] worked out at 7%. Still for that read-out and setting: in the case of TGGTCTAGGATCCTCT (sugars k3 d10 k3, PS) it was -15%. On the same count and under the same terms, next, AATTACACCAGTCCTT (sugars k3 d10 k3, PS): 42%; GCTTATTCCCCAATGG (sugars k3 d10 k3, PS): 73% and 48% and 50%. The same measure, in the same setting: next, GCCAACACAGTTTGCT (sugars k3 d10 k3, PS): 30%; GCCTCTTCATTGTATT (sugars k3 d10 k3, PS): 10%. As for ATCGCCTTCAAATTAT (sugars k3 d10 k3, PS), in series [1], the target mRNA inhibition is 60% and 76%.

For TTTTACCAACCACTCG (sugars k3 d10 k3, PS), the target mRNA inhibition in series [1] was found to be 31%. Still for that read-out and setting: next, TATTGGAAAACTTAAC (sugars k3 d10 k3, PS): 26%; ATCACTTTAGAGGCTT (sugars k3 d10 k3, PS): 53%. In the case of GGACAGTAGGTATAGT (sugars k3 d10 k3, PS), the target mRNA inhibition in series [1] stood at 11%. Same read-out and setting: next, CCTGCCTTAAAGTTAC (sugars k3 d10 k3, PS): 20%; TTACCTTGAAACCGAT (sugars k3 d10 k3, PS): 31%. Still for that read-out and setting: next, CCGCCTTTGTGAGGGA (sugars k3 d10 k3, PS): 14%. The same measure, in the same setting: in the case of TAAATCCCTTTACACC (sugars k3 d10 k3, PS) it was 12%. For the sequence TAGACGGAGAACAACT (sugars k3 d10 k3, PS), the target mRNA inhibition in series [1] was determined as 29%. For the sequence ATCATTGGGAGTTACT (sugars k3 d10 k3, PS), the target mRNA inhibition in series [1] amounted to 54%. Still for that read-out and setting: next, TCTTAACAGCTTATGG (sugars k3 d10 k3, PS): 31%; GCCGCCTTTGTGAGGG (sugars k3 d10 k3, PS): 25%; CAATGCATTCTAATAG (sugars k3 d10 k3, PS): 18%. GCCTATAAGGACAGCT (sugars k3 d10 k3, PS): the target mRNA inhibition in series [1] was 11%. On the same count and under the same terms, in the case of AGGGCTTTACTTTCCA (sugars k3 d10 k3, PS) it was -5%.

Consider CATTACCCCAACTAAA (sugars k3 d10 k3, PS), for which the target mRNA inhibition in series [1] was 15%. Still for that read-out and setting: in the case of GCCGCCTGCTACCTTC (sugars k3 d10 k3, PS) it was 12%. Still for that read-out and setting: in the case of GGAGGTATGACATATA (sugars k3 d10 k3, PS) it was 68% and 84%. The same measure, in the same setting: in the case of TGTAAGAATTAAGACC (sugars k3 d10 k3, PS) it was 18%. For GCTGTGGTTTTAATAC (sugars k3 d10 k3, PS), the target mRNA inhibition in series [1] is 49% and 57%. In the case of CATGCCAGTTACTCCA (sugars k3 d10 k3, PS), in series [1], the target mRNA inhibition was 33%. On the same count and under the same terms, in the case of CACAAGGCAAATCGCC (sugars k3 d10 k3, PS) it was 20%; in that of CAACCTCCGTCATGTT (sugars k3 d10 k3, PS), 35%. Same read-out and setting: in the case of AAAAGTAGTTCTTCGG (sugars k3 d10 k3, PS) it was 18%; in that of CGCTTGAGATTTGGGC (sugars k3 d10 k3, PS), 33%; in that of CTGCAAACTTTAGACA (sugars k3 d10 k3, PS), 7%. Same read-out and setting: in the case of CAAAACGAATTCAGGG (sugars k3 d10 k3, PS) it was 26%; in that of AAGTGCTCACAAGGCA (sugars k3 d10 k3, PS), -16%. With AGCAACTCTTCTGATA (sugars k3 d10 k3, PS), in series [1], the target mRNA inhibition came to 30%. Same read-out and setting: next, AATACTTCATTACCCC (sugars k3 d10 k3, PS): 45%; AGATCGCCTTCAAATT (sugars k3 d10 k3, PS): 41%.

Turning to “GGGATTATATACTGGT (sugars kkdddddddddekeke, PS)”, the target mRNA inhibition in series [2] (MM.1R, 1 µM) turned out to be 34%. Same read-out and setting: in the case of ATGTGATAGCTGAGCT (sugars k3 d10 k3, PS) it was 26%.

In the case of GTGAAACTGAGAGTGC (sugars k3 d10 k3, PS), in series [2] (SK-MEL-28, 4 µM), the target mRNA inhibition is -20%.
